Here are results for 13 compounds from US10828349B2, “Treatment of microbial infections” (NATIONAL UNIVERSITY OF IRELAND, GALWAY, priority 2011, dated 2020).

Data set [1] has as its system E. coli. As to conditions: constant substrate and LP; glucose/glucose oxidase doubly diluted; Mueller Hinton broth.
Method: (§2) Secondly, an assay where the concentration of substrates was maintained constant, and the H2O2 levels were varied was employed.
This was aliquoted (150 μl) to a 96 well plate.
The test system of data set [2] is bacterial cells. Kind of data set: lower limits of components of the enzymatic system, LB broth. Format: cell-based. As to conditions: for level of required substrate: glucose and glucose oxidase levels sufficient. The procedure: The lower limits of each of the components in an enzymatic system, required to produce inhibitory biocidal concentrations of the antimicrobial agents, were determined (for example Table 1 and Table 5). To establish these lower limits for each component, minimum inhibitory concentrations for each were calculated using doubling dilutions on a 96-well plate, in a manner similar to that described in Example 1, wherein the concentration of the component of choice is lowered until no effect on growth is noted. […] At levels below this, there was insufficient reactive oxygen species produced to result in effective bactericidal activity. The level of LP required for a reaction to produce the reactive oxygen species at the required concentrations was determined at 0.15 unit activity/ml (1 mM KI present). […] This embodiment of the invention suitable for the therapeutic treatment of mastitis also included beta-galactosidase to convert the lactose present in milk to glucose.

In data set [3] the test system is E. coli. The following applies: constant H2O2 (glucose oxidase) and LP; substrate 40 mg/ml doubly diluted; Mueller Hinton broth.
Method: as §2
This was aliquoted (150 μl) to rows of a 96-well plate. […] The samples were doubly diluted as far as well 11, leaving well 12 as a control. The plate was incubated overnight at 37° C., and the optical density measured throughout.
Data set [4] relates to E. coli. As to conditions: catalase treated.
Method: The antimicrobial properties of these compositions were tested using a doubling dilution 96-well plate growth assay-based method. An aliquot of the composition was added to 150 μl growth medium (with 1-2% glucose present) containing 10^7-8 bacterial cells, and brought to a final volume of 300 μl. The composition concentration was doubly diluted by the removal of 150 μl of the mixture and transfer to the next well containing 150 μl of identical growth medium, lacking the ROS producing components. The optical density of the medium was measured for 24 hours at 595 nm. […] Controls included wells to which none of the composition was supplemented, or wherein, one of the components was removed from the composition.
A further example of a pre-activated system was employed as follows: solutions (4 ml volumes) containing 0.85 M H2O2 plus none or 2.5 M NaCl/5 μl chloroperoxidase (˜10,000 Units/ml) were allowed incubate. The solutions were then split and either catalase treated (50 μl of a 4 mg/ml, >1,000 units/mg) or were not catalase treated. The relative antimicrobial properties of the solutions were then tested using the protocol as described in Example 1 using E. coli supplemented broth.
In another data set the test system is E. coli ATCC 25922. Kind of data set: hydrogen peroxide source growth inhibition assay with or without LP and KI. Format: cell-based. The procedure: Aliquots (20 ml) of nutrient broth were inoculated with 10^8 cells of E. coli ATCC 25922, and 150 μl of the inoculated broth were added to wells in a 96 well growth plate. This was repeated with the inoculated broth being further supplemented with LP (37.5 μl of a 4 mg/ml solution) and KI (75 μl of a 40 mg/ml solution) to the medium.
Sources of hydrogen peroxide were added (150 μl) to well 1 and doubly diluted to well 11, but not to well 12, which acted as a control.

For data set [5], the system named is bacterial cells. In words: potency in broth growth medium containing catalase. Format: cell-based. The following applies: hydrogen peroxide 0.85 M only. The procedure:
This embodiment is referred to as ‘KI-Dose-150’.
The potency of the doses was not reversed. A 1:1024 dilution of the doses was inhibitory in the absence of catalase, and a 1:512 dilution of the doses was inhibitory in the presence of catalase.
As a comparison, the test was performed using only hydrogen peroxide (0.85 M), both in the presence and absence of catalase.

In data set [6] the test system is Staphycoccus epidermidis central venous catheter-related biofilm. The following applies: cited from earlier work; for result relative to gentamycin and vancomycin: biofilm lock therapy model; for duration of treatment after which biofilm cells were still recoverable: 10 g/L antibiotic.
A further data set concerns R550/2012 9026. Kind of data set: antibiotic susceptibility of strain. Format: cell-based, P. aeruginosa. Details: key: ‘S’ denotes sensitive; ‘R’ denotes resistant or increased tolerance. As to conditions: R550/2012 9026, cystic fibrosis sputum isolate. As for the experimental part: (§1) The susceptibility of a number of P. aeruginosa strains to the KI-Dose-150 composition was tested using the method described in Example 1. […] The relative susceptibilities are described in Table 4.

In another data set the test system is R479/2012 9028. In words: antibiotic susceptibility of strain. Details: key: ‘S’ denotes sensitive; ‘R’ denotes resistant or increased tolerance. As to conditions: R479/2012 9028, cystic fibrosis sputum isolate. Format: cell-based, P. aeruginosa. The procedure:
as §1

The test system of the next data set is P. aeruginosa D12. In words: antibiotic susceptibility of strain. The class given is cell-based. Details: key: ‘S’ denotes sensitive; ‘R’ denotes resistant or increased tolerance. As for the experimental part:
as §1

Another data set relates to R480/2012 9029. Kind of data set: antibiotic susceptibility of strain. The class given is cell-based, P. aeruginosa. Details: key: ‘S’ denotes sensitive; ‘R’ denotes resistant or increased tolerance. As to conditions: R480/2012 9029, cystic fibrosis sputum isolate. As for the experimental part:
as §1

For another data set, the system named is R468/2012 9027. In words: antibiotic susceptibility of strain. The class given is cell-based, P. aeruginosa. Details: key: ‘S’ denotes sensitive; ‘R’ denotes resistant or increased tolerance. As to conditions: R468/2012 9027, cystic fibrosis sputum isolate. The procedure:
as §1

In data set [7] the test system is E. coli. Kind of data set: milk inoculated with E. coli, enzymatic system with Beta-galactosidase. The class given is cell-based. As to conditions: component of the four-component system in milk inoculated with E. coli.
Data set [8] in a line: effect of milk pasteurisation heating on the enzymatic components. The class given is physicochemical. As to conditions: held 15-600 seconds; activity read by E. coli total viable counts in milk after 24 hrs at 37° C. As for the experimental part:
An attempt was made to determine the effects of the milk pasteurisation process on the enzymatic components, which can be used to produce the reactive oxygen species of the composition of the present invention. Working concentrations of the enzymes were heated in 50 μl volumes to 72° C. and held for 15, 30, 60, 300 or 600 seconds.
Appropriate concentrations of these aliquots were then transferred to milk containing the necessary components of the system and ˜10^8 cells/ml E. coli. Total viable counts were performed after 24 hrs incubation at 37° C. This allowed the determination of whether the enzymes were still active after heating.

Where [9] appears, read: nutrient broth supplemented with KI and LP.

As to `[I-].[K+]` [Iodide, potassium iodide], the “number of dilutions of the H2O2 producing sample with inhibition” value with E. coli [1] is given as “six”. In the data set on bacterial cells [2], the “level of required substrate” value is “approximately 0.5 mM”. The “last doubling dilution with substrate level sufficient for complete inhibition” value in the data set with E. coli [3] is on record as 8.

On to `OO` [hydrogen peroxide], for which the “dilutions at which inhibition of the bacteria was noted” value with E. coli [4] was “no inhibition”. In addition, the “greatest dilution of the hydrogen peroxide source inhibitory to E. coli” value with E. coli ATCC 25922 (setting [9]) is given as 1:32 dilution still not inhibitory. Besides, the “effect of catalase on the inhibitory nature” value with bacterial cells [5] is listed as “completely reverse the inhibitory nature”.

Turning to `N#C[S-].[K+]` [Thiocyanate, potassium thiocyanate], the “number of dilutions of the H2O2 producing sample with inhibition” value in the data set on E. coli [1] is recorded as “two”. Further, the “level of required substrate” value in the data set with bacterial cells [2] is reported as “approximately 0.5 mM”. In addition, the “last doubling dilution with substrate level sufficient for complete inhibition” value in the data set with E. coli [3] was found to be 9.

Consider `CC(=O)NC[C@H]1CN(c2ccc(N3CCN(C(=O)CO)CC3)c(F)c2)C(=O)O1` [eperezolid], for which the “result relative to gentamycin and vancomycin” value in data set [6] is on record as “better results”.

On to `NC[C@H]1O[C@H](O[C@H]2[C@H](O)[C@@H](O[C@H]3O[C@H](CO)[C@@H](O)[C@H](N)[C@H]3O)[C@H](N)C[C@@H]2N)[C@H](N)C[C@@H]1O` [Tobramycin], for which the “susceptibility of the strain to the antibiotic” value (shortened to “susceptibility of the strain”) with R550/2012 9026 and in the data set with R479/2012 9028 was “R” in each case.

Consider `O=C([O-])[O-].O=C([O-])[O-].OO.OO.OO.[Na+].[Na+].[Na+].[Na+]` [sodium percarbonate solution, sodium percarbonate], for which the “greatest dilution of the hydrogen peroxide source inhibitory to E. coli” value with E. coli ATCC 25922 (setting [9]) is on record as “no difference as regards inhibition”; in the data set on E. coli ATCC 25922 (nutrient broth without supplemented KI and LP), “identical to that observed following direct H2O2 addition”.

As for `O=C(O)c1cn(C2CC2)c2cc(N3CCNCC3)c(F)cc2c1=O` [Ciprofloxacin], the “susceptibility of the strain” value in the data set on P. aeruginosa D12, in the data set on R480/2012 9029 and with R550/2012 9026 was “R” throughout.

Regarding `CC(=O)NC[C@H]1CN(c2ccc(N3CCOCC3)c(F)c2)C(=O)O1` [linezolid], the “result relative to gentamycin and vancomycin” value in data set [6] is reported as “better results”.

In the case of `CN[C@H](CC(C)C)C(=O)N[C@H]1C(=O)N[C@@H](CC(N)=O)C(=O)N[C@H]2C(=O)N[C@H]3C(=O)N[C@H](C(=O)N[C@H](C(=O)O)c4cc(O)cc(O)c4-c4cc3ccc4O)[C@H](O)c3ccc(c(Cl)c3)Oc3cc2cc(c3O[C@@H]2O[C@H](CO)[C@@H](O)[C@H](O)[C@H]2O[C@H]2C[C@](C)(N)[C@H](O)[C@H](C)O2)Oc2ccc(cc2Cl)[C@H]1O` [vancomycin], the “duration of treatment after which biofilm cells were still recoverable” value in data set [6] was 7 days.

For `NCC[C@H](O)C(=O)N[C@@H]1C[C@H](N)[C@@H](O[C@H]2O[C@H](CN)[C@@H](O)[C@H](O)[C@H]2O)[C@H](O)[C@H]1O[C@H]1O[C@H](CO)[C@@H](O)[C@H](N)[C@H]1O` [Amikacin], the “susceptibility of the strain” value in the data set with R480/2012 9029, in the data set with R468/2012 9027, in the data set with R550/2012 9026 and in the data set on R479/2012 9028 was “R” each time.

With lactoperoxidase, the “concentration sufficient to observe antibacterial activity” value in the data set on E. coli [7] was at least 12 mg/L. Besides, the “enzyme activity after heating to 72° C.” value in data set [8] is given as “demonstrated activity after 300 seconds heating”. In the data set with bacterial cells [2] (1 mM KI present), the “level of LP required” value turned out to be 0.15 unit activity/ml.

Take Glucose oxidase: the “concentration sufficient to observe antibacterial activity” value in the data set with E. coli [7] was at least 3.75 mg/L. In addition, the “glucose oxidase level required” value with bacterial cells [2] (0.5% glucose) is listed as 2 units/ml; in the data set on bacterial cells [2] (1% glucose) it was 1 units/ml; with bacterial cells [2] (LB broth, 2% glucose, 120 mg/L KI, 320 units LP), “at least 0.5 unit glucose oxidase/ml”.

Turning to Gentamicin, the “duration of treatment after which biofilm cells were still recoverable” value in data set [6] was 10 days. For the same compound, the “susceptibility of the strain” value with R480/2012 9029, in the data set on R550/2012 9026 and in the data set on R479/2012 9028 was “R” throughout.
